Laboratory results from ChEMBL document CHEMBL3526005, “Pharmacokinetic and pharmacodynamic properties of cholinesterase inhibitors donepezil, tacrine, and galantamine in aged and young Lister hooded rats” (Drug Metab Dispos, 2011).
The source made the active and inactive calls. The calls are words filed in the database; no cut-off is given here.

Assays:
in vivo [1] = details: Lister Hooded, rat, po, 3 mg/kg
Rattus norvegicus [2] = organism: Rattus norvegicus; details: in vivo, iv, 1 mg/kg, 1 h
[3] = Mean residence time in 7 months-old Lister Hooded rat at 1 mg/kg, iv infusion for 1 hr; details: in vivo
[4] = Tmax in human at 2 mg, po single dose; details: in vivo
Rattus norvegicus [5] = organism: Rattus norvegicus; details: in vivo, po, 3 mg/kg
[6] = Oral bioavailability in human at 2 mg single dose; details: in vivo
[7] = Half life in human at 2 mg, po single dose; details: in vivo
in vivo [8] = details: Lister Hooded, rat, iv, 1 mg/kg
Rattus norvegicus [9] = organism: Rattus norvegicus; details: in vivo, iv, 1 mg/kg, 1 h; remark: listed apart in the source
in vivo [10] = details: Lister Hooded, rat, brain, po, 3 mg/kg
Description: Ratio of brain to blood in 30 months-old Lister Hooded rat blood at 3 mg/kg, po after 1 hr treatment

Rattus norvegicus [11] = organism: Rattus norvegicus; details: in vivo, po, 3 mg/kg; remark: listed apart in the source
in vivo [12] = details: Lister Hooded, rat, po, 3 mg/kg; remark: listed apart in the source
in vivo [13] = details: Lister Hooded, rat, iv, 1 mg/kg; remark: listed apart in the source
Homo sapiens = test: Volume of distribution in human at 2 mg, po single dose; details: in vivo
in vivo [14] = details: Lister Hooded, rat, po, 3 mg/kg; remark: listed apart in the source
Rattus norvegicus [15] = organism: Rattus norvegicus; details: in vivo, po, 3 mg/kg; remark: listed apart in the source
[16] = Volume of distribution in 7 months-old Lister Hooded rat at 1 mg/kg, iv infusion for 1 hr; details: in vivo
in vivo [17] = details: Lister Hooded, rat, po, 3 mg/kg; remark: listed apart in the source
in vivo [18] = details: Lister Hooded, rat, iv, 1 mg/kg; remark: listed apart in the source
Rattus norvegicus [19] = test: Inhibition of cholinesterase activity in 30 months-old Lister Hooded rat plasma assessed as percent enhancement of inhibition at 3 mg/kg, po after 1 hr treatment; format: organism-based; parameters: dose 3 mg/kg; scale not given: the % may be the effect or the level left
Rattus norvegicus [20] = organism: Rattus norvegicus; details: in vivo, iv, 1 mg/kg, 1 h; remark: listed apart in the source
in vivo [21] = details: Lister Hooded, rat, po, 3 mg/kg; remark: listed apart in the source
Rattus norvegicus [22] = organism: Rattus norvegicus; details: in vivo, po, 3 mg/kg; remark: listed apart in the source
[23] = Mean residence time in 30 months-old Lister Hooded rat at 1 mg/kg, iv infusion for 1 hr; details: in vivo
in vivo [24] = details: Lister Hooded, rat, iv, 1 mg/kg; remark: listed apart in the source
Rattus norvegicus [25] = test: Inhibition of cholinesterase activity in 7 months-old Lister Hooded rat plasma at 3 mg/kg, po after 1 hr treatment; format: organism-based; parameters: dose 3 mg/kg
in vivo [26] = details: Lister Hooded, rat, po, 3 mg/kg; remark: listed apart in the source
[27] = Volume of distribution in 30 months-old Lister Hooded rat at 1 mg/kg, iv infusion for 1 hr; details: in vivo
[28] = Half life in 30 months-old Lister Hooded rat at 1 mg/kg, iv infusion for 1 hr; details: in vivo
[29] = Clearance in human at 2 mg, po single dose; details: in vivo
[30] = Half life in 7 months-old Lister Hooded rat at 1 mg/kg, iv infusion for 1 hr; details: in vivo
[31] = Ratio of brain to blood in 7 months-old Lister Hooded rat blood at 3 mg/kg, po after 1 hr treatment
[32] = Drug excretion in human urine assessed as unchanged drug level at 2 mg, po single dose; format: ADME, organism-based; details: read-out: Drug excretion
[33] = Drug uptake in 30 months-old Lister Hooded rat blood at 3 mg/kg, po after 1 hr treatment; details: in vivo
[34] = Drug uptake in 30 months-old Lister Hooded rat assessed as corrected brain concentration at 3 mg/kg, po after 1 hr treatment; details: in vivo
[35] = Drug uptake in 7 months-old Lister Hooded rat blood at 3 mg/kg, po after 1 hr treatment; details: in vivo
[36] = Drug uptake in 7 months-old Lister Hooded rat assessed as corrected brain concentration at 3 mg/kg, po after 1 hr treatment; details: in vivo
Rattus norvegicus [37] = organism: Rattus norvegicus; details: in vivo, iv, 1 mg/kg, 1 h; remark: listed apart in the source
[38] = biological target: Butyrylcholinesterase (Rattus norvegicus) (UniProt Q9JKC1); details: Lister Hooded, Plasma, 3 mg/kg
Chain of Butyrylcholinesterase (Rattus norvegicus) (Q9JKC1 as listed by the source): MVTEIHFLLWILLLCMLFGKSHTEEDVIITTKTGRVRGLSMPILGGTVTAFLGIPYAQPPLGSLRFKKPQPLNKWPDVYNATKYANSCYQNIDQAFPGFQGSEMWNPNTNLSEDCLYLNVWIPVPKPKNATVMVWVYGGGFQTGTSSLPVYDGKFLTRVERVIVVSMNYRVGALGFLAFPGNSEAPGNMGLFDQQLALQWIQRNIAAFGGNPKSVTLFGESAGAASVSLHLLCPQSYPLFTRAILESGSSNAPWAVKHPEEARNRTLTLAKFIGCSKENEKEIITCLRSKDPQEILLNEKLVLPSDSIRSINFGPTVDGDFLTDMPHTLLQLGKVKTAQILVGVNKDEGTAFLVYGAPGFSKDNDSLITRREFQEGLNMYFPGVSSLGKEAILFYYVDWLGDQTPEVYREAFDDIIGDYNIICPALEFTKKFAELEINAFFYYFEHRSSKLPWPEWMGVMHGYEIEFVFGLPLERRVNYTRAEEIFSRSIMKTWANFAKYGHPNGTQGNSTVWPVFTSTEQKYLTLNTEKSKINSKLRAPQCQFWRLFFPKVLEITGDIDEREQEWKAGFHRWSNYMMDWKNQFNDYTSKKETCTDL
Description: Inhibition of butyrylcholinesterase activity in 7 months-old Lister Hooded rat plasma at 3 mg/kg, po after 1 hr treatment

[39] = Plasma protein binding in human at 2 mg, po single dose; details: in vivo
[40] = biological target: Butyrylcholinesterase (Rattus norvegicus) (UniProt Q9JKC1); details: Lister Hooded, 3 mg/kg
Description: Inhibition of butyrylcholinesterase activity in 7 months-old Lister Hooded rat brain at 3 mg/kg, po after 1 hr treatment

[41] = Drug excretion in human feces at 2 mg, po single dose; details: in vivo
[42] = Drug excretion in human urine at 2 mg, po single dose; details: in vivo

Compound	Cmax (in vivo [1])	AUCt/dose (Rattus norvegicus [2])	MRT at 1 h [3]	Tmax [4]	AUCt (Rattus norvegicus [5])	bioavailability [6]	half-life [7]	Cmax at 1 h (in vivo [8])	AUCt/dose (Rattus norvegicus [9])	Kp at 1 h (in vivo [10])	bioavailability (in vivo [12])	Cmax at 1 h (in vivo [13])	Vd (Homo sapiens)	Tmax (in vivo [14])	AUCt (Rattus norvegicus [15])	Vd at 1 h [16]	Cmax (in vivo [17])	bioavailability (in vivo [21])	MRT at 1 h [23]	inhibition (Rattus norvegicus [25])	also measured
COc1cc2c(cc1OC)C(=O)C(CC1CCN(Cc3ccccc3)CC1)C2.Cl (configuration not stated) [DONEPEZIL HYDROCHLORIDE]	180 nM	15.9 kg·min/L	3 h	3 h	0.76 µM·h	100%	70 h	300 nM	16.4 kg·min/L	5.3	36%	320 nM	12 L/kg	1 h	0.91 µM·h	9.2 L/kg	200 nM	43%	4.6 h	92.6%	AUC/dose (Rattus norvegicus [11]): 6.9 kg·min/L; clearance at 1 h (in vivo [18]; blood): 43 mL/min/kg; Activity (Rattus norvegicus [19]): 18%; AUC/dose (Rattus norvegicus [20]): 23.7 kg·min/L; AUC/dose (Rattus norvegicus [22]): 5.8 kg·min/L; clearance at 1 h (in vivo [24]; blood): 52 mL/min/kg; Tmax (in vivo [26]): 1 h; Vd at 1 h [27]: 11.8 L/kg; half-life at 1 h [28]: 3.6 h; CL/F [29]: 2.17 mL/min/kg; half-life at 1 h [30]: 2.5 h; Kp at 1 h [31]: 4.4; dose excreted [32]: 17%
Br.COc1ccc2c3c1O[C@H]1C[C@@H](O)C=C[C@@]31CCN(C)C2 [GALANTAMINE HYDROBROMIDE]	890 nM	20.4 kg·min/L	2 h	1 h	2.89 µM·h	85%	5 h	910 nM	28.9 kg·min/L	2	83%	590 nM	2.9 L/kg	0.5 h	3.45 µM·h	5 L/kg	1330 nM	67%	1.5 h	92.6%	concentration at 1 h [33]: 580 nM; concentration at 1 h [34]: 1140 nM; AUC/dose (Rattus norvegicus [11]): 19.3 kg·min/L; clearance at 1 h (in vivo [18]; blood): 34 mL/min/kg; AUC/dose (Rattus norvegicus [20]): 29.9 kg·min/L; AUC/dose (Rattus norvegicus [22]): 17.4 kg·min/L; concentration at 1 h [35]: 420 nM; clearance at 1 h (in vivo [24]; blood): 41 mL/min/kg; Tmax (in vivo [26]): 0.5 h; Vd at 1 h [27]: 2.9 L/kg; concentration at 1 h [36]: 730 nM; half-life at 1 h [28]: 1.2 h; CL/F [29]: 5.67 mL/min/kg; half-life at 1 h [30]: 1.9 h; AUC/dose (Rattus norvegicus [37]): 22.7 kg·min/L; Kp at 1 h [31]: 1.7; dose excreted [32]: 32%
Cl.Nc1c2c(nc3ccccc13)CCCC2 [TACRINE HYDROCHLORIDE]	360 nM	10.2 kg·min/L	0.9 h	1 h	0.7 µM·h	17%	2 h	740 nM	12.4 kg·min/L	9.5	27%	700 nM	5.02 L/kg	0.5 h	0.89 µM·h	5.1 L/kg	310 nM	29%	1.1 h	92.6%	concentration at 1 h [33]: 190 nM; inhibition [38]: Active; fraction unbound [39]: 0.45; concentration at 1 h [34]: 1720 nM; clearance at 1 h (in vivo [18]; in vivo): 77 mL/min/kg; inhibition [40]: Active; concentration at 1 h [35]: 110 nM; clearance at 1 h (in vivo [24]; in vivo): 93 mL/min/kg; Tmax (in vivo [26]): 0.5 h; Vd at 1 h [27]: 5.2 L/kg; concentration at 1 h [36]: 1240 nM; Drug excretion [41]: 23%; half-life at 1 h [28]: 1.1 h; CL/F [29]: 40.3 mL/min/kg; half-life at 1 h [30]: 0.9 h; Kp at 1 h [31]: 11; Drug excretion [42]: 57%
